Data as given in PubChem BioAssay (NCI).
Values joined by “and” are separate entries in the source; they are usually repeats but may differ in a detail not shown here. Equal values may be shown once.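 Method: 48-hour compound exposure of cells in 96-well plates, five concentrations, linear interpolation of endpoints. GI50: concentration for 50% inhibition of growth. TGI marks complete inhibition of growth.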

Legend:
Experiment in all cases: DTP human tumour cell line panel, 48 h
BT-549 breast = test system: BT-549 breast
SK-MEL-28 melanoma = test system: SK-MEL-28 melanoma
NCI-H460 lung = test system: NCI-H460 lung
MOLT-4 leukemia = test system: MOLT-4 leukemia
U251 CNS = test system: U251 CNS
HCT-116 colon = test system: HCT-116 colon
CCRF-CEM leukemia = test system: CCRF-CEM leukemia
LOX IMVI melanoma = test system: LOX IMVI melanoma
MCF7 breast = test system: MCF7 breast
OVCAR-8 ovarian = test system: OVCAR-8 ovarian
RPMI-8226 leukemia = test system: RPMI-8226 leukemia
DU-145 prostate = test system: DU-145 prostate
T-47D breast = test system: T-47D breast
SF-539 CNS = test system: SF-539 CNS
NCI-H226 lung = test system: NCI-H226 lung
SF-268 CNS = test system: SF-268 CNS
NCI-H23 lung = test system: NCI-H23 lung
EKVX NSCLC = test system: EKVX NSCLC
HOP-62 NSCLC = test system: HOP-62 NSCLC
A498 renal = test system: A498 renal
UACC-257 melanoma = test system: UACC-257 melanoma
786-0 renal = test system: 786-0 renal
K-562 leukemia = test system: K-562 leukemia
MDA-N = test system: MDA-N
M14 melanoma = test system: M14 melanoma
OVCAR-4 ovarian = test system: OVCAR-4 ovarian
PC-3 prostate = test system: PC-3 prostate
SW-620 colon = test system: SW-620 colon
HCC-2998 colon = test system: HCC-2998 colon
SNB-19 CNS = test system: SNB-19 CNS
SF-295 CNS = test system: SF-295 CNS
CAKI-1 renal = test system: CAKI-1 renal
KM12 colon = test system: KM12 colon
SN12C renal = test system: SN12C renal
TK-10 renal = test system: TK-10 renal
HCT-15 colon = test system: HCT-15 colon
OVCAR-5 ovarian = test system: OVCAR-5 ovarian
NCI-H522 lung = test system: NCI-H522 lung
RXF 393 renal = test system: RXF 393 renal
HOP-92 NSCLC = test system: HOP-92 NSCLC
HS 578T breast = test system: HS 578T breast
IGROV1 ovarian = test system: IGROV1 ovarian
SNB-75 CNS = test system: SNB-75 CNS
MDA-MB-231 breast = test system: MDA-MB-231 breast
SK-MEL-5 melanoma = test system: SK-MEL-5 melanoma
OVCAR-3 ovarian = test system: OVCAR-3 ovarian
MALME-3M melanoma = test system: MALME-3M melanoma
SK-MEL-2 melanoma = test system: SK-MEL-2 melanoma
ACHN renal = test system: ACHN renal
A549 NSCLC = test system: A549 NSCLC
HL-60(TB) leukemia = test system: HL-60(TB) leukemia
SR leukemia = test system: SR leukemia
UACC-62 melanoma = test system: UACC-62 melanoma
UO-31 renal = test system: UO-31 renal
HT29 colon = test system: HT29 colon

N#Cc1c(-c2ccccc2)c(C#N)c(=S)n(C2OC(CO)C(O)C(O)C2O)c1N (stereo not drawn)
TGI (BT-549 breast): > 100 µM | TGI (SK-MEL-28 melanoma): > 100 µM | TGI (NCI-H460 lung): > 100 µM | GI50 (MOLT-4 leukemia): 39.3 µM and > 100 µM | TGI (MOLT-4 leukemia): > 100 µM | TGI (U251 CNS): > 100 µM | TGI (HCT-116 colon): > 100 µM | TGI (CCRF-CEM leukemia): > 100 µM | TGI (LOX IMVI melanoma): > 100 µM | GI50 (MCF7 breast): 91.1 µM and 41.6 µM | TGI (MCF7 breast): > 100 µM | TGI (OVCAR-8 ovarian): > 100 µM | TGI (RPMI-8226 leukemia): > 100 µM | TGI (DU-145 prostate): > 100 µM | TGI (T-47D breast): > 100 µM | TGI (SF-539 CNS): > 100 µM | TGI (NCI-H226 lung): > 100 µM | TGI (SF-268 CNS): > 100 µM | TGI (NCI-H23 lung): > 100 µM | GI50 (EKVX NSCLC): 44.4 µM and > 100 µM | TGI (EKVX NSCLC): > 100 µM | GI50 (HOP-62 NSCLC): > 100 µM and 36 µM | TGI (HOP-62 NSCLC): > 100 µM | TGI (A498 renal): > 100 µM | TGI (UACC-257 melanoma): > 100 µM | TGI (786-0 renal): > 100 µM | TGI (K-562 leukemia): > 100 µM | TGI (MDA-N): > 100 µM | TGI (M14 melanoma): > 100 µM | TGI (OVCAR-4 ovarian): > 100 µM | TGI (PC-3 prostate): > 100 µM | TGI (SW-620 colon): > 100 µM | TGI (HCC-2998 colon): > 100 µM | TGI (SNB-19 CNS): > 100 µM | TGI (SF-295 CNS): > 100 µM | TGI (CAKI-1 renal): > 100 µM | TGI (KM12 colon): > 100 µM | TGI (SN12C renal): > 100 µM | GI50 (TK-10 renal): 40.5 µM and > 100 µM | TGI (TK-10 renal): > 100 µM | TGI (HCT-15 colon): > 100 µM | TGI (OVCAR-5 ovarian): > 100 µM | TGI (NCI-H522 lung): > 100 µM | TGI (RXF 393 renal): > 100 µM | GI50 (HOP-92 NSCLC): 42 µM and 21 µM | TGI (HOP-92 NSCLC): > 100 µM | TGI (HS 578T breast): > 100 µM | GI50 (IGROV1 ovarian): > 100 µM and 45.5 µM | TGI (IGROV1 ovarian): > 100 µM | TGI (SNB-75 CNS): > 100 µM | TGI (MDA-MB-231 breast): > 100 µM | TGI (SK-MEL-5 melanoma): > 100 µM | TGI (OVCAR-3 ovarian): > 100 µM | TGI (MALME-3M melanoma): > 100 µM | TGI (SK-MEL-2 melanoma): > 100 µM | TGI (ACHN renal): > 100 µM | TGI (A549 NSCLC): > 100 µM | TGI (HL-60(TB) leukemia): > 100 µM | TGI (SR leukemia): > 100 µM | TGI (UACC-62 melanoma): > 100 µM | GI50 (UO-31 renal): > 100 µM and 40.3 µM | TGI (UO-31 renal): > 100 µM | TGI (HT29 colon): > 100 µM
